Assay results as given in the METLIN SMRT retention time set (Domingo-Almenara et al. 2019).

Assay: gradient 5% acetonitrile 3 min, to 50% in 2 min, to 85% in 15 min, held 3 min, 100 µL/min
Conditions: column: Zorbax Extend-C18 2.1 x 50 mm; eluents: water / acetonitrile, 0.1% formic acid
How it was run: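 Mixtures of ~100 pure standards were chromatographed on a Zorbax Extend-C18 column (2.1 × 50 mm, 1.8 μm) at 100 μL/min using water and acetonitrile, each with 0.1% formic acid. Detection used a quadrupole time-of-flight mass spectrometer in positive and negative ionization mode, and data collection spanned 3 months. Retention time was obtained from adduct peaks picked computationally and each checked manually.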

RP-LC retention time	SMILES
776 s	O=C(CN1CCN(Cc2ccc(F)cc2)C1=O)NCCc1cccs1
886 s	COc1cc(NC(=O)c2c(S(=O)(=O)Nc3ccc(Cl)cc3)n[nH]c2C)cc(OC)c1
900 s	O=C(Cc1c(F)cccc1Cl)N1CC(c2nc(-c3ccccc3)no2)C1
1090 s	CC1CCN(c2cc(-n3cnc(C(=O)N4CCN(c5ccccc5F)CC4)c3)ncn2)CC1
755 s	Cc1ccc(CNC(=O)Cn2nc(C(=O)N3CCCC3)c3ccccc32)o1
1020 s	O=C(Cc1ccc(Cl)cc1)Nc1nc(-c2ccccc2)cs1
942 s	COc1cccc(CNC(=O)C2(C)CCCN(C(=O)Nc3ccc(Cl)cc3)C2)c1 (stereo not given)
1040 s	CCCS(=O)(=O)c1nc2ccc(NS(=O)(=O)Cc3cc(C)ccc3C)cc2s1
966 s	CCc1csc(-c2ccc(N3CCN(C(=O)c4nn(C)c5ccccc45)CC3)nc2)n1
949 s	COc1ccc(-c2noc(Cn3nc(-c4ccc(C)cc4)ccc3=O)n2)c(OC)c1
693 s	CCN(CC)S(=O)(=O)c1ccc2c(c1)N(CC(=O)NCCc1ccco1)C(=O)C1CCCCN21 (stereo not given)
1140 s	Cc1ccc(C)c(CN2CCCN(CC(=O)NC(C)CCc3ccccc3)S2(=O)=O)c1 (stereo not given)
865 s	COc1ccc(CNC(=O)c2nnc(-c3ccc(S(=O)(=O)N(C)C)cc3)o2)cc1OC
744 s	CN(CC1CCOC1)C(=O)Nc1cc(F)cc(F)c1 (stereo not given)
784 s	CCOC(=O)CNC(=O)C(c1ccccc1)n1cccc1 (stereo not given)
1020 s	O=C(NCCc1c[nH]c2ccccc12)c1nn(-c2ccc(Cl)cc2)nc1CO
556 s	COc1ncccc1CNC(=O)CCc1c(C)noc1C
728 s	Cc1cc(F)ccc1NS(=O)(=O)c1cc(-c2[nH]ncc2C(=O)N2CCCC2)oc1C
1160 s	CCN(C(=O)CSC1=Nc2ccccc2NC(CC(=O)OC)=C1)c1cccc(C)c1
579 s	O=C(NCC#CCN1CCc2ccccc2C1)c1cc(C2CC2)on1
662 s	CCc1nc(-c2csc(S(=O)(=O)N3CCC(C(=O)NCc4ccc(C)cc4)CC3)c2)no1
847 s	Cc1cccc(CNC(=O)CN2CCN(Cc3cccc(Cl)c3)C2=O)c1
931 s	CCOC(=O)CNC(=O)N1CCCCCC1c1cccc(C)c1 (stereo not given)

RP-LC retention time	SMILES
972 s	Cc1cccc(C)c1NC(=O)Cn1cnc2c(sc3nc(-c4ccccc4)ccc32)c1=O
770 s	Cc1cc(F)ccc1NS(=O)(=O)c1cc(-c2[nH]ncc2C(=O)N2CCCCC2)oc1C
717 s	O=C(Nc1nc2c(s1)CN(C(=O)c1cc(-c3ccc(F)cc3)n[nH]1)CC2)c1ccco1
749 s	COC(=O)c1c(C)[nH]c(C(=O)N2CCC(CC(=O)NCc3ccccc3C)CC2)c1C
682 s	CCNc1cc(N2CCC(CCC(=O)NCc3ccc(F)c(Cl)c3)CC2)ncn1
872 s	Cn1c(=O)n(C)c2cc(N3CCCCC3)c(NC(=O)c3ccco3)cc21
830 s	Cc1ccc(NC(=O)C2CCN(S(=O)(=O)c3cc(C(=O)N4CCCC4)cs3)CC2)cc1
628 s	CC(=O)Nc1onc(C)c1-c1ccc(C)c(S(=O)(=O)N2CCN(c3ccccn3)CC2)c1
1050 s	CCc1ccccc1NS(=O)(=O)c1ccc2c(c1)C(=O)N(CC)c1ncccc1O2
680 s	Cc1ccc2c(Nc3ccc(F)c(F)c3)c(C(=O)N3CCCC3)cnc2n1
554 s	COCCNC(=O)Cn1c(CO)cnc1SCC(=O)Nc1ccc2c(c1)OCCO2
720 s	COc1ccc(NC(=O)CN2C(=O)NC3(CCC(C)CC3)C2=O)cc1OC (stereo not given)
680 s	Cc1cccn2cc(-c3ccc(NC(=O)c4ncccn4)cc3)nc12
827 s	CCN1c2ccc(F)cc2C(=O)NC12CCN(C(=O)c1cccc(C)c1)CC2
594 s	CCc1nc2cc(N3CCCC(C(=O)NCCN4CCOCC4)C3)cnc2nc1CC (stereo not given)
685 s	O=C(Nc1nnc(C2CCCO2)o1)c1ccc([N+](=O)[O-])s1 (stereo not given)
978 s	CC1CC(=O)N(CC(=O)Nc2cccc(Cl)c2)c2ccccc2S1 (stereo not given)
736 s	COc1ccc(-c2nc3cc(C)ccn3c2NC(=O)c2ccc(Cl)c([N+](=O)[O-])c2)cc1
594 s	O=C(NCc1ccncc1)C1CN(S(=O)(=O)c2ccccc2)CC12CCCCC2 (stereo not given)
716 s	COCCN1C(=O)CCc2cc(NS(=O)(=O)c3ccccc3)ccc21
811 s	O=C(Nc1cccc(OCc2nnc(-c3ccc(Cl)cc3)o2)c1)c1cccnc1
669 s	COc1ccc(S(=O)(=O)N2CCCC(C(=O)NCCO)C2)cc1C (stereo not given)
589 s	CN(C)CCNC(=O)C1CCN(c2ccc3nnc(-c4ccccc4Cl)n3n2)CC1

RP-LC retention time	SMILES
752 s	Cc1ccc(S(=O)(=O)N2CCC(C(=O)NCc3cscn3)CC2)c(C)c1
746 s	O=C(c1cnccn1)N1CC(F)(F)C[C@H]1c1nc(C2CC2)no1
609 s	O=C(Nc1ccc(-c2nnc3n2CCCC3)cc1)c1ccco1
881 s	CCN(CC)C(=O)C1CCCN(S(=O)(=O)c2ccc(OC)c(C)c2)C1 (stereo not given)
841 s	CCCN1C(=O)COc2ccc(-c3noc(Cc4ccc(NC(C)=O)cc4)n3)cc21
661 s	CCOc1ccc(Nc2c(C(=O)N3CCC(C)CC3)cnc3nc(C)ccc23)cc1
1000 s	Cc1cccc(C(=O)Nc2cc(-c3cccs3)no2)c1
704 s	O=C(c1cccs1)N1CCCC1c1nc(-c2ccccc2)n[nH]1 (stereo not given)
1010 s	CCc1noc(-c2ccc(-n3ncc(C(=O)N4CCCCCC4)c3C)nc2)n1
1010 s	CC1CCCN(S(=O)(=O)c2ccc(-c3nnc(C4CCC4)o3)o2)C1 (stereo not given)
784 s	O=C(NCc1ccc(F)cc1)C1CCN(C(=O)c2ncn3c2COC(c2ccc(F)cc2)C3)CC1 (stereo not given)
834 s	CCn1nc(C)c(-c2cc(C(=O)N3CCCCCCNC(=O)[C@@H]4CCCC[C@@H]43)no2)c1C
927 s	CSc1nc2ccc3nc(NC(=O)c4cnccn4)sc3c2s1
592 s	COc1ccc(C2=NC3(CCN(C(C)C)CC3)NC(c3ccccc3O)C2)cc1 (stereo not given)
930 s	CN1c2cc(C(=O)Nc3cccc(C(F)(F)F)c3)ccc2C(=O)N2CCCCC21 (stereo not given)
858 s	CCOC(=O)C1CCN(c2nc3ccccc3n2Cc2cc(C)ccc2C)CC1
609 s	O=C(NCc1ccccc1Cl)c1ccc(=O)n(CCN2CCOCC2)c1
867 s	O=c1c2nc(-c3ccc(F)cc3)cn2ccn1-c1cccc(Cl)c1
683 s	Cn1cc(CC(=O)NCc2cc(F)ccc2F)c2cccnc21
564 s	c1cncc(-c2nc(CC3CCCNC3)no2)c1 (stereo not given)
600 s	Cc1noc(-c2nn(C)c3c2CN(C(=O)C2CCCO2)CC3)n1 (stereo not given)
571 s	Cn1cnc2cc(CNC(=O)c3cccs3)ccc21
1010 s	N#CC1=CN(c2ccc3c(c2)CCC3)c2ccccc2S1(=O)=O

RP-LC retention time	SMILES
756 s	COC(=O)c1cccc(NC(=O)N2CCN(Cc3nc4ccc(Cl)cc4o3)CC2)c1
794 s	O=C(CN1C(=O)CCSc2ccccc21)NCc1ccc(F)cc1
779 s	COc1ccc(C(C)NC(=O)C2=C3CCCN3c3ccccc3S2(=O)=O)cc1OC (stereo not given)
868 s	CCCc1noc(-c2ccnc(-n3ncc(C(=O)NC(C)C)c3C)c2)n1
726 s	Cc1c(C(=O)O)nnn1-c1ccc(F)c(Cl)c1
827 s	CCCN(CC1CCOC1)C(=O)C1CCCCC1 (stereo not given)
944 s	O=C(Nc1ccccc1)N1CC(c2nc(CCOCC3CCCC3)no2)C1
791 s	O[C@H](CNC[C@@H](O)[C@H]1CCc2cc(F)ccc2O1)[C@@H]1CCc2cc(F)ccc2O1
905 s	O=C(c1cc2cc(Br)ccc2[nH]1)N1CCCC1
537 s	c1ccc(N2CCN(c3ccc4nncn4n3)CC2)nc1
564 s	Cc1cc(C)n(CC(=O)N[C@@H]2CN(S(C)(=O)=O)C[C@H]2CN(C)C)n1
873 s	CCOc1cc(CNC(=O)C2=Cc3cc(OC)ccc3OC2)ccc1OC
772 s	O=C(c1ccc2c(c1)OCO2)N1CCN(c2cc(-c3ccc(F)cc3)[nH]n2)CC1
889 s	CN(CCc1noc(-c2ccc(F)cc2)n1)C(=O)COc1ccc(F)cc1
1040 s	Cc1cc(=O)n(CC(=O)Nc2ccc3c(c2)OCO3)c(-c2ccc(Cl)cc2)n1
666 s	Cc1cc(NC(=O)CSc2ccc(-n3cccn3)nn2)on1
982 s	Cn1c(=O)n(C)c2cc(S(=O)(=O)C3CCCCC3)c(NC(=O)c3ccccc3)cc21
1220 s	Cc1ccc(NC(=O)c2c(C)sc3ncnc(N4CCCC(C)C4)c23)cc1 (stereo not given)
884 s	O=C(COc1ccccc1)N1CCN(Cc2ccccc2)c2ncccc21
646 s	CCNc1cc(N2CCC(CCC(=O)NCc3ccccc3F)CC2)ncn1
617 s	c1cn(-c2cc(NC3CCCCC3)ncn2)cn1
